The values that follow are results of earlier work, collected in patent US6447793B2, “Water soluble, broad spectrum preservative system” (The Collaborative Group, Ltd., priority 1998, dated 2002).

Among the test systems are mold; yeast; most bacterial.
Common to all, as to conditions: pH of 4.5 or below

Regarding `C/C=C/C=C/C(=O)O` [sorbic acid, Sorbic acid], the activity against mold result with mold was “very active”. Further, the activity against yeast entry with yeast is “fair”. The “activity against most bacterial” value in the data set with most bacterial is “poor”.
